# Data: patent US11154550B2, “Treatment for neurodegeneration” (The University of Birmingham, priority 2012, dated 2021)
# Entries after “also recorded” stand apart in the source; their conditions may differ. Where a name gives a salt, the structure may show the parent alone. Read-outs that look alike come from different tables or passages of the source.
# Key:
# p21 = p21 fluorescent immunocytochemistry followed by high content cytometry in drug-treated SHSY-5Y cells; type: cell-based, Human; conditions: neuroblastoma cells
# Method: (§1) Human SHSY-5Y neuroblastoma cells were grown in DMEM:F12 supplemented with 10% FCS, penicillin (100 units/mil), streptomycin (100 μg/ml) and L-glutamine. The cells were plated for 24 hours into 96 well plates (5000 cells per well) before treatment with drugs. Each drug (doses applied in separate figures) and the control (DMSO) were applied to 8 technical replicate wells. After 24 hours treatment the cells were harvested by fixation in Glyofix and were post-fixed with ice cold 85% ethanol.
# (§2) For P21^cip staining, the alcohol was aspirated and replaced with 100 μl/well blocking solution (5% BSA in PBST [1:1000 Triton X]) and incubated for 30 minutes at room temperature. After aspirating the blocking solution, 50 μl/well primary antibody solution (monoclonal P21 Abcam, 1:1000 in PBST) was added and incubated over night at 4° C. and PBST was applied as negative control. The next day, the cells were washed by twice aspirating 200 μl/well PBST. Afterwards, 50 μl/well secondary antibody solution (Anti-mouse IgG-FITC, Abcam, 1:200 in PBST) was added, protecting the solutions and plates from light, and incubated overnight at +4° C. The next day, the cells were washed twice with 200 μl/well PBST and stained with propidium iodide solution. […]. The composition of the propidium iodide staining solution was 0.1% Triton-X-100, […] propidium iodide, […] RNase A in PBS. The cells were incubated with the staining solution for 25 minutes at 37° C., and then DNA content based on total fluorescence was measured with a High Content Cytometer (Acumen). This allows rapid analysis of whole 96 well plates with resolution equivalent to a 20× microscope objective. The measurement of p21 content of cells and nuclei was based on the direct measurement of fluorescent intensity.
# [1] = test system: Human SHSY-5Y neuroblastoma cells; experiment: High content cytometry apoptosis assay in drug-treated SHSY-5Y cells; type: cell-based; conditions: 24 hours; for cell death: up to 200 microM
# Method: as §1, §2
# [2] = test system: C7, KD2 and KD3 cell lines (SK-N-AS derived); experiment: Cell cycle analysis (propidium iodide DNA content cytometry) in drug-treated C7, KD2 and KD3 cells; type: cell-based, human; conditions: 24 hours, up to 100 μM
# Method: The C7 cell suspension were poured into sterile reagent reservoir labelled C7 and using multichannel pipette, 50 μl of cell suspension were dispense into each well. Then 50 μl of 2× culture media was added into each well. Plating was repeated for KD2 and KD3 cell lines. One plate of ‘zero day control’ was also prepared per experiment. On ‘zero day control’ plate, C7 cell line were plated into columns 1, 2, 7 and 8; KD2 cell line were plated into columns 3, 4, 9 and 10; KD3 cell line were plated into columns 5, 6, 11 and 12. Cells were plated at the same density for both ‘zero day control’ and experiment plates. The ‘zero day control’ plate remains untreated and is to be harvested just before the drugs were added into the treatment plates.
# For each drug, 2× working solutions are prepared in culture medium and added to the cultures. The highest drug concentration is 100 μM and final solvent (H2O/DMSO) concentration in the cultures is 1%.
# Using an 8-multichannel pipetor, 100 μl of 2× final drug concentrations were gently dispensed into the culture plates of C7, KD2 and KD3 cells. The time of the treatment was noted and cells were transferred back into 37° C./5% CO2 humidified incubator and were incubated for 24 hours.
# The propidium iodide staining was used to determine the cell cycle phase of the cells based on DNA content.
# To determine cut-offs for cells in different phases of the cell cycle, gate setting was performed based on the G1 and G2 peaks on the DNA content histogram. To determine the G1 and G2 peaks, the 3° total intensity in 20% histograms was analysed for each plate. Gates calculated were manually entered into the Acumen software.
# (§3) The data exported and quantified included separately all cells and single cells. Single cells were further subcategorised into euploid, apoptotic and polyploid cells. Euploid cells were additionally classified into cells in G1 S and G2M phases of the cell cycle.
# p21cip1 = p21cip1 immunostaining and cytometry in drug-treated C7, KD2 and KD3 cells; type: cell-based, human
# Method: BSA was removed from the plates after 30 minutes incubation. To C7, KD2 and KD3 plates, 50 μl of primary antibody (p21; Abcam ab7903; 1/1000 in PBST) solution was added to each well. On ‘zero day control’ plate, 50 μl of the primary antibody was added to columns 1-6 while columns 7-12 received only 50 μl PBST on each well. These (columns 7-12) serve as a negative controls and will received secondary antibody only. Plates were then wrapped in cling film and were incubated at +4° C. overnight. The following day, p21 primary antibody solution was removed from the plates and cells were washed by adding 200 μl of PBST. This was repeated once (total of 2 washes) and all plates were then subjected to secondary antibody treatment. Secondary antibody solution was made using am IgG-FITC (Abcam ab6785; 1/200 in PBST) and 50 μl was added to each well. Plates were then wrapped in aluminium foil to protect from light and were incubated at +4° C. for 2 hours. The immunostaining was used to measure the content of p21^cip1 in the cells. Measurement was carried out using a laser triggering the 1° channel (bandpass filter 500-530 nm). The total fluorescence intensity from the 1° channel was used to compare total protein levels in the different cell populations defined above. Mean fluorescence intensity per cell (for the whole of the population) and mean fluorescence intensity per cell (for positive cells only) were analysed separately. Additionally the proportion of positive cells in each population was calculated.
# [3] = test system: C7, KD2 and KD3 cell lines (SK-N-AS derived); experiment: Apoptotic fraction in p21 positive versus p21 negative cells of drug-treated C7, KD2 and KD3 cultures; type: cell-based, human
# Method: as §3
# The total fluorescence intensity from the 1° channel was used to compare total protein levels in the different cell populations defined above. Mean fluorescence intensity per cell (for the whole of the population) and mean fluorescence intensity per cell (for positive cells only) were analysed separately. Additionally the proportion of positive cells in each population was calculated.
# [4] = all three cell lines (C7, KD2, KD3)
# [5] = G1 and G2 subpopulations, all three cell lines
# [6] = all cell lines (C7, KD2, KD3), 24 hours
compound,measurement,setting,value
CC(C(=O)O)c1ccc(-c2ccccc2)c(F)c1 (racemic) [Flurbiprofen],p21 expression,"p21; 0.01 and 0.1 microM, 24 hours",significantly increase
same,p21 expression in the nuclear compartment,"p21; 0.01 and 0.1 microM, 24 hours",significantly increase
same,expression and/or the functional activity of p21,p21,increased
same,apoptotic cell death,[1]; 0.01 and 0.1 microM,reduce apoptosis; also recorded: significantly reduce; also recorded: reduce apoptotic cell death
"O=C([O-])CCCc1ccccc1.[Na+] [4-PBA, Sodium 4-phenylbutyrate]",cell cycle effects,[2]; [4],no effects
same,p21 expression,"p21cip1; G2 cell population, all three cell lines",induces; also recorded: relatively small
same,p21 expression,"p21cip1; G2 cell population, all three cell lines, listed as Sodium 4-phenylbutyrate",induces
same,apoptosis in p21 positive cells relative to p21 negative cells,[3],significantly reduced apoptosis
"Cc1cc(C2CCCCC2)n(O)c(=O)c1 [CPX, Ciclopirox Olamine]",cell cycle effects,[2]; [4],slight G1 cell cycle arrest
same,p21 expression,p21cip1; [5],induces significant p21 expression
same,p21 expression,p21cip1; [6],up-regulates
same,apoptosis in p21 positive cells relative to p21 negative cells,[3],significant reduction of apoptotic cells; also recorded: reduced cell death
CCN(CC)CCCC(C)Nc1ccnc2cc(Cl)ccc12 (stereo not shown) [Chloroquine diphosphate],cell cycle effects,[2]; [4],no significant effect
same,cell cycle effects,"[2]; all three cell lines (C7, KD2, KD3), listed as chloroquine diphosphate",no significant cell cycle regulatory effects
same,proportion of protein positive cells,p21cip1; C7 cells,increased proportion
same,p21 expression,"p21cip1; C7 cells, G1 and G2M",significantly increased
same,proportion of protein positive cells,p21cip1; KD2 and KD3 cells,increased
same,p21 expression,"p21cip1; KD2 cells, G2M phase",up-regulated
same,p21 expression,"p21cip1; KD3 cell line, G1",upregulation
same,population of positive cells,p21cip1; all cell lines,increases
same,p21 expression,p21cip1; [6],up-regulates
same,apoptosis in p21 positive cells relative to p21 negative cells,[3],significantly less likely to be apoptotic; also recorded: significantly reduced cell death
"Nc1ccc(S(=O)(=O)c2ccc(N)cc2)cc1 [Dapsone, 4-Aminophenyl sulfone]",cell cycle effects,[2]; [4],No cell cycle effects
same,p21 expression,p21cip1; [6],significantly up-regulates
same,apoptosis in p21 positive cells relative to p21 negative cells,[3],significant reduction of apoptotic cells
C[C@@H](CN1CC(=O)NC(=O)C1)N1CC(=O)NC(=O)C1 [Dexrazoxane],expression and/or the functional activity of p21,p21,increased
same,p21 expression,"p21; up to 200 microM, 24 hours",significantly increase
same,cell death,[1],reduce neuronal cells death; also recorded: significantly reduced cell death
same,cell death,[1]; listed as Dexrasoxane,reduce apoptosis; also recorded: significantly reduced cell death
CC(=O)O[C@H]1C[C@@]2(C)[C@@H](C[C@@H](O)[C@H]3[C@@]4(C)CC[C@@H](O)[C@@H](C)[C@@H]4CC[C@@]32C)/C1=C(\CCC=C(C)C)C(=O)O [Fusidic acid],cell cycle effects,[2]; [4],weak G2 inhibitor
same,p21 expression,p21cip1; [6],significant increase; also recorded: induces significant p21 expression
same,apoptosis in p21 positive cells relative to p21 negative cells,[3],reduction of apoptosis
"CN(C)C(=O)C(CCN1CCC(O)(c2ccc(Cl)cc2)CC1)(c1ccccc1)c1ccccc1 [Loperamide, Loperamide hydrochloride]",cell cycle effects,"[2]; all three cell lines (C7, KD2, KD3), hydrochloride",weak G1 inhibitor; also recorded: weak G1 cell cycle arrest
same,p21 expression,p21cip1; [5],induce
same,p21 expression,p21cip1; [6],up-regulates
same,apoptosis in p21 positive cells relative to p21 negative cells,[3]; hydrochloride,significant reduction of apoptosis; also recorded: reduces apoptosis significantly
same,apoptosis in p21 positive cells relative to p21 negative cells,"[3]; listed as Loperamide hydrochloride, hydrochloride",significant reduction of apoptosis
"CCCC(CCC)C(=O)[O-].[Na+] [SV, Sodium Valproate]",cell cycle effects,[2]; C7 cell line,slight G2 arrest; also recorded: not seen
same,cell cycle effects,[2]; KD2 cell line,G1 inhibition; also recorded: slight G1 inhibitor effect
same,cell cycle effects,[2]; KD3 cell line,G1 inhibition; also recorded: slight G1 inhibitor effect
same,p21 protein expression,"p21cip1; G2 sub-population of cells, 1 μM, 24 hours",significant upregulation
same,p21 expression,p21cip1; [6],modest
same,apoptosis in p21 positive cells relative to p21 negative cells,[3],significant reduction of apoptotic fraction
